# Tested on: PAF lethality in CD1 mice
# Assay: PAF lethality assay
# Format: in vivo
# Settings: Mus musculus; positive control; oral dosing 45 minutes before i.v. PAF; percent mortality compared to controls
# Protocol: To evaluate the active compounds of the present invention, in vivo, they are tested by the so-called PAF lethality assay procedure: Materials:
# Mice: CD1 males, all approximately the same weight (about 26 grams), 12 per group.
# Vehicle for oral drug dosing: EES (5% ethanol, 5% emulphor, 90% saline). Stored at room temperature.
# Drugs: For routine screening at 50 mg/kg, 20 mg drug is dissolved in 4 ml EES, using sonication in a sonicator bath or grinding in a Ten Broeck (trademark) grinder to dissolve drug if necessary. If solubility is still a problem, the drug is used as a suspension.
# Vehicle for i.v. Injection: Saline with 2.5 mg/ml Bovine Serum Albumin (BSA, Sigma #A4378) and 0.05 mg/ml Propranolol (Sigma #P0884). Prepared fresh daily and kept at room temperature.
# Platelet Activating Factor (PAF): A […] stock solution is prepared by dissolving 1 mg PAF (Calbiochem #429460) in 0.18 ml ethanol. This stored at -20° C. and is diluted in vehicle (see above) the day of use. The concentration of PAF used is calibrated so that when injected at 0.1 ml/10 grams body weight, it will kill approximately 80% of untreated controls. This is usually about […] (a 1 to 2034 dilution from stock). […]
# 45 minutes before PAF injection, mice are treated orally with drug using 0.1 ml/10 grams body weight. […] Results are expressed as percent mortality as compared to controls. […]
compound,measurement,value
O=C1CCN(c2ccccc2)N1 [Phenidone],ED50,~25 mg/kg
